Assays:
[1] = molecular target: full-length human recombinant IDO1 protein (Homo sapiens (Human), UniProt P14902); assay: IDO enzyme activity inhibition testing (Ehrlich method); type: biochemical; details: OD490, 10 concentration points
Experimental: IDO Enzyme Activity Inhibition Testing
The effects of the compounds of the invention on the activity of indoleamine 2,3-dioxygenase (IDO) were evaluated by the Ehrlich method.
The experimental principle is summarized as follows: IDO1 catalyzes oxidation of tryptophan to form N-formyl kynurenine, N-formyl kynurenine is subsequently hydrolyzed by trichloroacetic acid to form kynurenine, and kynurenine further reacts with the Ehrlich reagent to make the solution yellow. The absorbance at 490 nm (OD490) is directly proportional to the activity of IDO1.
The experimental methods are summarized as follows:
The reaction buffer was 50 mM 2-(N-morpholine)ethanesulfonic acid-hydrate (Sigma, Cat. No. 69889); the full-length human recombinant IDO1 protein was purchased from the Tsinghua Protein Research Technology Center and diluted to a 33.6 ng/μL enzyme solution with the reaction buffer; the substrate solution was prepared with the reaction buffer containing 20 mM vitamin C (Sigma, Cat. No. A5960), 150 μM L-tryptophan (Sigma, Cat. No. T0254), 2250 UI/mL catalase (Sigma, Cat. No. C30), and 10 μM methylene blue (Sigma, Cat. No. 28514); the reaction termination solution was 30% (mass/volume) trichloroacetic acid (Sigma, Cat. No. T9159) aqueous solution; the Ehrlich reagent was 2% p-dimethylaminobenzaldehyde (Sigma, Cat. No. 156477) acetic acid (Macklin, Cat. No. A801295) solution.
A compound was dissolved in DMSO (Sigma, Cat. No. D5879) and diluted to 1 mM, then serially diluted 3-fold with DMSO to a minimum concentration of 50.8 nM, and each concentration was further diluted 25-fold with the reaction buffer. If a compound's IC50 value was very low, the initial concentration of the compound was decreased.
A 10-μL compound solution and a 10-μL enzyme solution were added to a 96-well plate (Sigma, Cat. No. CLS3695), mixed well and incubated at room temperature. After 15 min, a 20-μL substrate solution was added and incubated at 60° C. after mixing for 30 min. The reaction plate was equilibrated to room temperature and 60 μL of the Ehrlich reagent was added. After incubation for 15 min, OD490 of each well was measured.
In this experiment, OD490 without enzyme was referred as OD490100% inhibition, and OD490 with enzyme added but without compound was referred as OD4900% inhibition.
(§1) Where Y is the percentage of inhibition, Bottom is the bottom platform value of the S-curve, Top is the top platform value of the S-curve, X is the logarithm of the concentration of the test compound, and slope factor is the slope coefficient of the curve.

[2] = molecular target: indoleamine 2,3-dioxygenase (IDO) in Hela cells (Homo sapiens (Human), UniProt P14902); assay: IDO intracellular activity inhibition testing in Hela cells induced by IFN-γ (Ehrlich method); type: cell-based; details: 24 hours, OD490, 8 concentration points
Chain of indoleamine 2,3-dioxygenase (IDO) in Hela cells (P14902 whole entry): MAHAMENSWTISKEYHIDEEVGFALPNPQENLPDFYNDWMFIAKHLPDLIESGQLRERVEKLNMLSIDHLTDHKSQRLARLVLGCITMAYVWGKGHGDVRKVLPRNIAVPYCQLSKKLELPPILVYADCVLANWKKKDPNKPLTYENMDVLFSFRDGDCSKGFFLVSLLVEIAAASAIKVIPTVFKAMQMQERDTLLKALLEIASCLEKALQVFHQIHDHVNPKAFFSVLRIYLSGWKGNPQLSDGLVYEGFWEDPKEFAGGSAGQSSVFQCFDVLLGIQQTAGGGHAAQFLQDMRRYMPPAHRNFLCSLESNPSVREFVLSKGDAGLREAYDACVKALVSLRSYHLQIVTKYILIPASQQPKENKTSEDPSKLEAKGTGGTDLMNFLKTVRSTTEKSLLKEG
Experimental: IDO Intracellular Activity Inhibition Testing
The effects of the compounds of the invention on the activity of indoleamine 2,3-dioxygenase (IDO) in Hela cells induced by IFN-γ were evaluated by the Ehrlich method.
The experimental principle is summarized as follows: IDO expression is low in Hela cells under no induction, but a certain concentration of IFN-γ can induces Hela cells to express IDO which catalyzes the conversion of tryptophan to N-formyl kynurenine, which in turn is hydrolyzed by trichloroacetic acid to give kynurenine. Kynurenine then reacts with the Ehrlich reagent to give a color enabling detection of the IDO activity. The absorbance at 490 nm (OD490) is directly proportional to the IDO activity.
A compound was dissolved in DMSO (Sigma, Cat. No. D5879) and diluted to 5 mM, then serially diluted 3-fold with DMSO to a minimum concentration of 2.29 μM, and each concentration point was diluted 50-fold with FBS-free DMEM medium (ThermoFisher, Cat. No. 11995073). If a compound's IC50 value is very low, the initial concentration of the compound was lowered.
Hela cells (ATCC, Cat. No. CCL-2) were cultured in DMEM complete medium containing 10% FBS (GBICO, Cat. No. 10099-141) and 100 U/mL streptomycin mixture (ThermoFisher, Cat. No. 15140122). When covering the culture vessel 80-90%, the cells were digested with 0.25% trypsin (containing EDTA) (ThermoFisher, Cat. No. 25200056) and planted in 96-well plates (Corning, Cat. No. 3599), 20000 cells per well (80 μL of DMEM medium). The plates were then incubated in a 37° C., 5% CO2 incubator overnight (18-20 hours).
After overnight, 10 μL of DMEM-diluted compound and 10 μL of 500 ng/mL of INF-γ were added to each well, and gently mixed and the 96-well plates were placed in a 37° C., 5% CO2 incubator for further culturing. After 24 hours, they were removed and centrifuged at room temperature 2000×g for 5 min, and then the supernatants were transferred to reaction plates (Sigma, Cat. No. CLS3695). One-twentieth of trichloroacetic acid (Sigma, Cat. No. T9159) was added and incubated at 60° C. After 30 min, the reaction plates were centrifuged at room temperature 2000×g for 5 min. The supernatants were transferred to clean reaction plates, an equal volume of the Ehrlich reagent was added, mixed, and incubated at room temperature. After 15 min, OD490 of each well was measured.
In this experiment, OD490 without IFN-γ but with DMEM medium replacement was referred as OD490100% inhibition. OD490 with IFN-γ and 0.2% DMSO was referred as OD4900% inhibition. The percentage of inhibition on the IDO1 activity in Hela cells by a compound was calculated using the following formula: Inhibition %=100−100*(OD490compound−OD490100% inhibition)/(OD4900% inhibition−OD490100% inhibition)
as §1

[3] = system: CT26 tumors; details: repeated doses; cited from earlier work
[4] = molecular target: plasma IDO1 (Mus musculus (Mouse), UniProt P28776); details: nude mice, single dose; at the level of IDO-deficient mice; cited from earlier work
Chain of plasma IDO1 (P28776 whole entry): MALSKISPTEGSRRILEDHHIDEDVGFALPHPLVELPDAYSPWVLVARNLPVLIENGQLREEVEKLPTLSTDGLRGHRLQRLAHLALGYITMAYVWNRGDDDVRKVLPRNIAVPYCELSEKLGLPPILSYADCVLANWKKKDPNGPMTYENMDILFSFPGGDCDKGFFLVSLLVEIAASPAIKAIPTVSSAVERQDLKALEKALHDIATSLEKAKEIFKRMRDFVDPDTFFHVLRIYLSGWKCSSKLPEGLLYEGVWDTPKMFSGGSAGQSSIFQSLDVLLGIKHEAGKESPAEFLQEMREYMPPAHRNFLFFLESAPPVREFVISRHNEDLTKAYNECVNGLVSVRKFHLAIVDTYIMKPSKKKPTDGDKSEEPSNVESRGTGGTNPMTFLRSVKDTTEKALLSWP

Chain of full-length human recombinant IDO1 protein (P14902 whole entry): as the sequence (P14902 whole entry) above

| Compound | IC50 [1] [nM] | IC50 [2] [nM] | expansion of CT26 tumors [3] | activity of plasma IDO1 [4] |
| --- | --- | --- | --- | --- |
| N#Cc1ccc(NC(=O)Nc2c(-c3ccccc3)ccc3cncn23)cc1 [Compound 17, 1-(4-cyanophenyl)-3-(6-phenylimidazo[1,5-a]pyridin-5-yl)urea] | < 250 | < 1000 | – | – |
| NS(=O)(=O)NCCNc1nonc1C(=NO)Nc1ccc(F)c(Br)c1 [INCB-024360] | – | – | prevented the expansion of CT26 tumors | effectively inhibit the activity of plasma IDO1 |
| N#Cc1ccc(NC(=O)Nc2c(Cl)ccc3cncn23)cc1 [Compound 19, 1-(6-chloroimidazo[1,5-a]pyridin-5-yl)-3-(4-cyanophenyl)urea] | < 250 | 1000 to 10000 | – | – |
| N#Cc1ccc(NC(=O)Nc2c(-c3cccc(F)c3)ccc3cncn23)cc1 [Compound 22, 1-(4-cyanophenyl)-3-(6-(3-fluorophenyl)imidazo[1,5-a]pyridin-5-yl)urea] | < 250 | < 1000 | – | – |
| N#Cc1ccc(NC(=O)Nc2c(-c3ccc(F)cc3)ccc3cncn23)cc1 [Compound 21, 1-(4-cyanophenyl)-3-(6-(4-fluorophenyl)imidazo[1,5-a]pyridin-5-yl)urea] | 250 to 1500 | 1000 to 10000 | – | – |
| N#CC1CCC(NC(=O)Nc2c(-c3ccccc3)ccc3cncn23)CC1 (stereo not shown) [Compound 36, 1-(4-cyanocyclohexyl)-3-(6-phenylimidazo[1,5-a]pyridin-5-yl)urea] | – | < 1000 | – | – |
| N#Cc1ccc(NC(=O)Nc2c(C3=CCCC3)ccc3cncn23)cc1 [Compound 24, 1-(4-cyanophenyl)-3-(6-(cyclopent-1-en-1-yl)imidazo[1,5-a]pyridin-5-yl)urea] | < 250 | 1000 to 10000 | – | – |
| N#Cc1ccc(NC(=O)Nc2c(-c3ccccc3F)ccc3cncn23)cc1 [Compound 23, 1-(4-cyanophenyl)-3-(6-(2-fluorophenyl)imidazo[1,5-a]pyridin-5-yl)urea] | < 250 | < 1000 | – | – |

The next lines start with results.

| IC50 [1] [nM] | IC50 [2] [nM] | Compound | expansion of CT26 tumors [3] | activity of plasma IDO1 [4] |
| --- | --- | --- | --- | --- |
| < 250 | < 1000 | N#Cc1ccc(NC(=O)Cc2c(-c3ccccc3)ccc3cncn23)cc1 [Compound 37, N-(4-cyanophenyl)-2-(6-phenylimidazo[1,5-a]pyridin-5-yl)acetamide] | – | – |
| – | < 1000 | N#Cc1ccc(NC(=O)C(O)c2c(-c3ccccc3)ccc3cncn23)cc1 (stereo not shown) [Compound 64, N-(4-cyanophenyl)-2-hydroxy-2-(6-phenylimidazo[1,5-a]pyridin-5-yl)acetamide] | – | – |
| 250 to 1500 | 1000 to 10000 | O=C(Cc1c(-c2ccccc2)ccc2cncn12)Nc1cn[nH]c1 [Compound 54, 2-(6-phenylimidazo[1,5-a]pyridin-5-yl)-N-(1H-pyrazol-4-yl)acetamide] | – | – |
| < 250 | 1000 to 10000 | O=C(Cc1c(-c2ccccc2)ccc2cncn12)Nc1cc[nH]n1 [Compound 53, 2-(6-phenylimidazo[1,5-a]pyridin-5-yl)-N-(1H-pyrazol-3-yl)acetamide] | – | – |
| < 250 | < 1000 | O=C(Cc1c(-c2ccccc2)ccc2cncn12)Nc1ccc(C(=O)NCCN2CCOCC2)cc1 [Compound 49, N-(2-morpholinoethyl)-4-(2-(6-phenylimidazo[1,5-a]pyridin-5-yl)acetamido)benzamide] | – | – |
| < 250 | < 1000 | O=C(Cc1c(-c2ccccc2)ccc2cncn12)Nc1ccc(C(=O)NCCCN2CCOCC2)cc1 [Compound 50, N-(3-morpholinopropyl)-4-(2-(6-phenylimidazo[1,5-a]pyridin-5-yl)acetamido)benzamide] | – | – |
| < 250 | < 1000 | O=C(Cc1c(-c2ccccc2)ccc2cncn12)Nc1ccc(-c2cn[nH]c2)cc1 [Compound 51, N-(4-(1H-pyrazol-4-yl)phenyl)-2-(6-phenylimidazo[1,5-a]pyridin-5-yl)acetamide] | – | – |

Reference: patent US11046682B2, “Fused heterocyclic derivatives, their preparation methods thereof and medical uses thereof” (Beijing Innocare Pharma Tech Co., Ltd., priority 2016, dated 2021)
